# According to PubChem BioAssay AID248 (DTP/NCI, 2004):
# Several values for one entry are separate records, joined by “and”; a condition that tells them apart may be missing. Equal values may be shown once. Toxic doses and inconclusive results are not listed.
# Test system: L1210 leukemia ip in BDF1 mice, survival T/C
# Test: NCI In Vivo Anticancer Drug Screen. Data for tumor model L1210 Leukemia (intraperitoneal) in B6D2F1 (BDF1) mice
# Details: endpoint: mean survival time, higher = longer survival
# Method in brief: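 Survival endpoint. Drug-treated group vs vehicle group, expressed as T divided by C. Tumor passaged by transplantation.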
# [1] = dose: 100.0 mg/kg/injection, schedule: Q04DX003 (ip), vehicle: saline with Tween-80
# [2] = dose: 200.0 mg/kg/injection, schedule: Q04DX003 (ip), vehicle: saline with Tween-80
# [3] = dose: 400.0 mg/kg/injection, schedule: Q04DX003 (ip), vehicle: saline with Tween-80
# [4] = dose: 50.0 mg/kg/injection, schedule: Q01DX009 (ip), vehicle: saline with Tween-80
# [5] = dose: 100.0 mg/kg/injection, schedule: Q01DX009 (ip), vehicle: saline with Tween-80
# [6] = dose: 100.0 mg/kg/injection, schedule: Q04DX003 (ip), vehicle: Klucel (hydroxypropylcellulose) (HPC)
# [7] = dose: 200.0 mg/kg/injection, schedule: Q04DX003 (ip), vehicle: Klucel (hydroxypropylcellulose) (HPC)
# [8] = dose: 400.0 mg/kg/injection, schedule: Q04DX003 (ip), vehicle: Klucel (hydroxypropylcellulose) (HPC)
# [9] = dose: 100.0 mg/kg/injection, schedule: Q04DX002 (ip), vehicle: Klucel (hydroxypropylcellulose) (HPC)
# [10] = dose: 200.0 mg/kg/injection, schedule: Q04DX002 (ip), vehicle: Klucel (hydroxypropylcellulose) (HPC)
# [11] = dose: 400.0 mg/kg/injection, schedule: Q04DX002 (ip), vehicle: Klucel (hydroxypropylcellulose) (HPC)
# [12] = dose: 100.0 mg/kg/injection, schedule: Q01DX001 (ip), vehicle: saline
# [13] = dose: 200.0 mg/kg/injection, schedule: Q01DX001 (ip), vehicle: saline
# [14] = dose: 400.0 mg/kg/injection, schedule: Q01DX001 (ip), vehicle: saline
# [15] = dose: 50.0 mg/kg/injection, schedule: Q01DX001 (ip), vehicle: saline
# [16] = dose: 50.0 mg/kg/injection, schedule: Q01DX001 (ip), vehicle: Klucel (hydroxypropylcellulose) (HPC)
# [17] = dose: 100.0 mg/kg/injection, schedule: Q01DX001 (ip), vehicle: Klucel (hydroxypropylcellulose) (HPC)
# [18] = dose: 200.0 mg/kg/injection, schedule: Q01DX001 (ip), vehicle: Klucel (hydroxypropylcellulose) (HPC)
# [19] = dose: 400.0 mg/kg/injection, schedule: Q01DX001 (ip), vehicle: Klucel (hydroxypropylcellulose) (HPC)
compound,measurement,setting,value
CCC(=O)/C(=C\c1ccccc1Cl)C(C)=O,T/C,[1],111 % of control
same,T/C,[2],117 % of control
same,T/C,[3],93 % of control
N#CC(C(N)=O)c1ccccc1 (stereo unspecified),T/C,"dose: 25.0 mg/kg/injection, schedule: Q01DX009 (ip), vehicle: saline with Tween-80",86 % of control
same,T/C,"dose: 25.0 mg/kg/injection, schedule: Q04DX003 (ip), vehicle: saline with Tween-80",99 % of control
same,T/C,[4],94 % of control
same,T/C,"dose: 50.0 mg/kg/injection, schedule: Q04DX003 (ip), vehicle: saline with Tween-80",100 % of control
same,T/C,[5],90 % of control
same,T/C,[1],98 % of control and 100 % of control
C(=C\c1ccccn1)/c1ccccc1,T/C,[6],100 % of control
same,T/C,[7],94 % of control
same,T/C,[8],103 % of control
COc1c(O)c2c(=O)cc3c4c5c(cc(=O)c6c(O)c(OC)c(CC(C)O)c(c(c1CC(C)O)c24)c65)OCO3 (stereo unspecified),T/C,[9],109 % of control
same,T/C,[10],102 % of control
same,T/C,[11],102 % of control
CCCP(C)(=S)CCC,T/C,"dose: 25.0 mg/kg/injection, schedule: Q04DX002 (ip), vehicle: Klucel (hydroxypropylcellulose) (HPC)",112 % of control
same,T/C,"dose: 50.0 mg/kg/injection, schedule: Q04DX002 (ip), vehicle: Klucel (hydroxypropylcellulose) (HPC)",108 % of control
same,T/C,[9],112 % of control
C[C@]12CC[C@@H]3c4ccccc4CC[C@H]3[C@@H]1CC[C@@H]2O,T/C,"dose: 62.5 mg/kg/injection, schedule: Q01DX015 (sc), vehicle: steriod suspending solution",97 % of control
same,T/C,"dose: 125.0 mg/kg/injection, schedule: Q01DX015 (sc), vehicle: steriod suspending solution",101 % of control
same,T/C,"dose: 250.0 mg/kg/injection, schedule: Q01DX015 (sc), vehicle: steriod suspending solution",100 % of control
same,T/C,"dose: 500.0 mg/kg/injection, schedule: Q01DX015 (sc), vehicle: steriod suspending solution",100 % of control
CC(NC(=O)c1cnc2ccccc2n1)C(=O)NCC(=O)O (stereo unspecified),T/C,"dose: 100.0 mg/kg/injection, schedule: Q01DX001 (ip), vehicle: carboxymethylcellulose (CMC)",93 % of control
same,T/C,"dose: 200.0 mg/kg/injection, schedule: Q01DX001 (ip), vehicle: carboxymethylcellulose (CMC)",89 % of control
same,T/C,"dose: 400.0 mg/kg/injection, schedule: Q01DX001 (ip), vehicle: carboxymethylcellulose (CMC)",94 % of control
CC(=O)Nc1cc(-c2ccccc2)c(NC(C)=O)c(-c2ccccc2)c1,T/C,[12],90 % of control
same,T/C,[13],90 % of control
same,T/C,[14],94 % of control
CCOC(=O)c1c(O)cc(C)[nH]c1=O,T/C,[15],102 % of control
same,T/C,[12],96 % of control
same,T/C,[13],104 % of control
same,T/C,[14],104 % of control
COc1ccc(N=Nc2ccccn2)cc1,T/C,[16],103 % of control
same,T/C,[17],105 % of control
same,T/C,[18],103 % of control
O=C1c2ccc([N+](=O)[O-])cc2-n2cccc21,T/C,[6],95 % of control
same,T/C,[7],104 % of control
same,T/C,[8],98 % of control
CCc1ccc2c(c1)N(CC(C)CN(C)C)c1ccccc1S2 (stereo unspecified),T/C,"dose: 1.56 mg/kg/injection, schedule: Q01DX009 (ip), vehicle: saline",115 % of control
same,T/C,"dose: 3.12 mg/kg/injection, schedule: Q01DX009 (ip), vehicle: saline",109 % of control
same,T/C,"dose: 6.25 mg/kg/injection, schedule: Q01DX009 (ip), vehicle: saline",106 % of control
same,T/C,"dose: 12.5 mg/kg/injection, schedule: Q01DX009 (ip), vehicle: saline",102 % of control
same,T/C,"dose: 12.5 mg/kg/injection, schedule: Q04DX003 (ip), vehicle: saline",113 % of control
same,T/C,"dose: 25.0 mg/kg/injection, schedule: Q04DX003 (ip), vehicle: saline",115 % of control
CSc1nc(Cl)nc(C(Cl)(Cl)Cl)c1Cl,T/C,[17],89 % of control
same,T/C,[18],103 % of control
same,T/C,[19],89 % of control
CC(C)(C#N)C(C)(C)C#N,T/C,"dose: 1.56 mg/kg/injection, schedule: Q04DX003 (ip), vehicle: saline with Tween-80",103 % of control
same,T/C,"dose: 3.13 mg/kg/injection, schedule: Q04DX003 (ip), vehicle: saline with Tween-80",92 % of control
same,T/C,"dose: 6.25 mg/kg/injection, schedule: Q04DX003 (ip), vehicle: saline with Tween-80",93 % of control and 92 % of control
CCCCCCCCCCC[n+]1cccc(C#N)c1,T/C,"dose: 5.0 mg/kg/injection, schedule: Q01DX009 (ip), vehicle: saline",101 % of control
same,T/C,"dose: 10.0 mg/kg/injection, schedule: Q01DX001 (ip), vehicle: saline",94 % of control
same,T/C,"dose: 10.0 mg/kg/injection, schedule: Q01DX009 (ip), vehicle: saline",93 % of control
same,T/C,"dose: 10.0 mg/kg/injection, schedule: Q04DX003 (ip), vehicle: saline",98 % of control
same,T/C,"dose: 20.0 mg/kg/injection, schedule: Q01DX001 (ip), vehicle: saline",101 % of control
same,T/C,"dose: 20.0 mg/kg/injection, schedule: Q01DX009 (ip), vehicle: saline",95 % of control
same,T/C,"dose: 20.0 mg/kg/injection, schedule: Q04DX003 (ip), vehicle: saline",93 % of control
same,T/C,"dose: 40.0 mg/kg/injection, schedule: Q01DX001 (ip), vehicle: saline",108 % of control
same,T/C,"dose: 40.0 mg/kg/injection, schedule: Q04DX003 (ip), vehicle: saline",95 % of control
C/C(C(=O)O)=C1\N=C(N)NC1=O,T/C,[17],98 % of control
same,T/C,[18],96 % of control
same,T/C,[19],102 % of control
CC(=O)NNc1nc(C)cs1,T/C,[1],97 % of control
CCOC(=O)c1cnc(SC)nc1Nc1cccc(Cl)c1Cl,T/C,[6],100 % of control
same,T/C,[7],95 % of control
same,T/C,[8],94 % of control
CSc1ccc(NC(=O)c2ccc(Cl)cc2)cc1,T/C,"dose: 100.0 mg/kg/injection, schedule: Q04DX002 (ip), vehicle: saline with Tween-80",100 % of control
same,T/C,"dose: 200.0 mg/kg/injection, schedule: Q04DX002 (ip), vehicle: saline with Tween-80",100 % of control
same,T/C,"dose: 400.0 mg/kg/injection, schedule: Q04DX002 (ip), vehicle: saline with Tween-80",92 % of control
C=CC(C)(C)c1ccccc1O,T/C,[1],95 % of control
same,T/C,[2],104 % of control
CC(C)CC(=O)/C(CC(C)C)=N/O,T/C,[15],96 % of control
same,T/C,[12],104 % of control
same,T/C,[13],96 % of control
same,T/C,[14],96 % of control
CCSC(=O)OCn1ncc2cc([N+](=O)[O-])ccc21,T/C,[12],112 % of control
same,T/C,[13],91 % of control
same,T/C,[14],103 % of control
COC(=O)c1[nH]nc(-c2ccccc2-c2ccccc2C(=O)O)c1C(=O)OC,T/C,[9],97 % of control
same,T/C,[10],108 % of control
same,T/C,[11],105 % of control
CN(Cc1cnc2nc(N)nc(N)c2n1)c1ccc(C(=O)NC(CCC(=O)NCC(=O)O)C(=O)O)cc1 (stereo unspecified),T/C,"dose: 5.0 mg/kg/injection, schedule: Q01DX009 (ip), vehicle: sodium bicarbonate",174 % of control
same,T/C,"dose: 10.0 mg/kg/injection, schedule: Q01DX009 (ip), vehicle: sodium bicarbonate",161 % of control
CCCCOC(=O)c1ccc(NC(=S)NC(=O)COc2ccccc2)cc1,T/C,[9],118 % of control
same,T/C,[10],101 % of control
same,T/C,[11],97 % of control
CCC(=O)Nc1cc(C)ccc1Cl,T/C,"dose: 100.0 mg/kg/injection, schedule: Q01DX009 (ip), vehicle: Klucel (hydroxypropylcellulose) (HPC)",101 % of control
same,T/C,"dose: 200.0 mg/kg/injection, schedule: Q01DX009 (ip), vehicle: Klucel (hydroxypropylcellulose) (HPC)",103 % of control
same,T/C,"dose: 400.0 mg/kg/injection, schedule: Q01DX009 (ip), vehicle: Klucel (hydroxypropylcellulose) (HPC)",103 % of control
Clc1ccc(C=Nc2ccc(Cl)cc2)cc1,T/C,[1],108 % of control
same,T/C,[2],90 % of control
same,T/C,[3],106 % of control
COc1ccc(/C=C(/C)[N+](=O)[O-])cc1OC,T/C,[16],98 % of control
same,T/C,[4],91 % of control
same,T/C,[17],94 % of control
same,T/C,[12],93 % of control
same,T/C,[5],115 % of control
same,T/C,[6],97 % of control
same,T/C,[18],103 % of control
same,T/C,"dose: 200.0 mg/kg/injection, schedule: Q01DX009 (ip), vehicle: saline with Tween-80",100 % of control
same,T/C,[7],102 % of control
same,T/C,[14],98 % of control
same,T/C,[8],97 % of control
Ic1ccc([I+]c2ccc(I)cc2)cc1,T/C,[9],106 % of control
same,T/C,[10],106 % of control
same,T/C,[11],106 % of control
